GI50 and IC50 data for ten compounds are collected here from patent publication US20250018047A1, “METHODS AND COMPOSITIONS FOR TARGETED PROTEIN DEGRADATION” (Ranok Therapeutics (Hangzhou) Co. Ltd., priority 2021, published 2025).

The target in assay [1] is BA/F3-KRAS(G12D) murine pro-B cell line stably expressing KRAS(G12D) (Homo sapiens, UniProt P01116, G12D, cells depend on it). The assay is described as follows: CellTiter-Glo cancer cell line proliferation assay, BA/F3-KRAS(G12D). It is filed as cell-based. The note with it: 24 hr, read-out: BAF3 at 24 hrs, IC50. The method, then:
The following cancer cell lines were employed: AsPC-1 human pancreatic adenocarcinoma (ATCC, #CRL-1682); A-427 human lung carcinoma (ATCC, #HTB-53); BA/F3-KRAS(G12D) murine pro-B cell line stably expressing KRAS(G12D) (Precedo, Hefei, China). Cell lines were cultured according to ATCC and recommendations. BA/F3-KRAS(G12D) cells were cultured in RPMI 1640 media with 10% fetal calf serum, 100 units/mL penicillin and […] streptomycin, and 1% glutamine.
CellTiter-Glo® Reagent Cancer Cell Line Proliferation Assays
Cells were plated in 96-well tissue culture plates at 4,000 cells/well and incubated at 37° C./5% CO2 for 24 hr in 100 μl of media. 3-fold serial dilutions of each test compound were prepared ranging from 20 μM to 1.02 nM. Cells were then treated with test compounds at various concentrations with a final concentration of 0.5% DMSO/well, and then incubated at 37° C./5% CO2 for 24 hr. 100 μl of CellTiter-Glo® Reagent (Promega Corporation, Madison, WI) was added to each well and processed according manufacturer's protocol. Results were analyzed and IC50-values were calculated in GraphPad 7 software.
For orientation: ATP-based viability assays read luminescence as a measure of living cells.

In a further assay the target is T1, KRAS(G12D)/SOS1 (Homo sapiens, UniProt P01116, G12D).
T1 construct: purchased Cisbio 63ADK000CB16PEG
T1 sequence (P01116 1-188 isoform P01116-2 G12D): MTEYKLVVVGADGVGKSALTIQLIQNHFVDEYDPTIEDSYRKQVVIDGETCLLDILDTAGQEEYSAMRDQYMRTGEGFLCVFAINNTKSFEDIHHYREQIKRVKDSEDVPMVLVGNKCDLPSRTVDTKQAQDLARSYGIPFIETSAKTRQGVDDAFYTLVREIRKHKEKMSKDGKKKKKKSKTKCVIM
The experiment in a line: KRAS(G12D)/SOS1 homogeneous time-resolved fluorescence (HTRF) assay. It is filed as binding. The conditions noted are these: absence of GTP, 4° C. for 3 hr. On the procedure: The test compound was mixed and incubated with reaction components, incubated in a sealed plate at 4° C. for 3 hr and fluorescence was measured using a PerkinElmer Envision plate reader.
In general terms: In TR-FRET formats the signal depends on donor and acceptor labels being close together.

Assay [2] concerns A-427 human lung carcinoma. The experiment in a line: CellTiter-Glo cancer cell line proliferation assay, A-427. It is filed as cell-based. The note with it: Homo sapiens, A-427, 24 hr, read-out: A427 at 24 hrs, IC50. The method in brief:
(§1)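 Cells plated at 4,000/well, grown 24 h at 37 °C/5% CO2, then exposed to compound concentration series (0.5% DMSO final) for 24 h. Viability read by CellTiter-Glo luminescence; IC50 values calculated.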

Assay [3] concerns AsPC-1 human pancreatic adenocarcinoma. The assay is described as follows: CellTiter-Glo cancer cell line proliferation assay, AsPC-1. It is filed as cell-based. The note with it: Homo sapiens, ASPC1, 24 hr. The method in brief:
as §1

Structures can show the parent of a compound that is named as a salt.

By IC50 is commonly meant the concentration that gives 50% inhibition.

BA/F3-KRAS(G12D) murine pro-B cell line stably expressing KRAS(G12D), sequence (P01116 whole entry G12D): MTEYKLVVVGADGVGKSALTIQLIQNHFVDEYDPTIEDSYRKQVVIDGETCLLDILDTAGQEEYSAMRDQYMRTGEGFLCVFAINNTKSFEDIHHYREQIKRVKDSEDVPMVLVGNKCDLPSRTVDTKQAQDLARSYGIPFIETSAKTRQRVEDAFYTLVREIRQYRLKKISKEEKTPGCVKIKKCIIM

On to `C#Cc1cccc2cccc(-c3ncc4c(N5CC6CCC(C5)N6)nc(OCCN5CCN(CC6CCN(c7ccc8c(c7)C(=O)N(C7CCC(=O)NC7=O)C8=O)CC6)CC5)nc4c3F)c12` (stereo not drawn) [Compound 1, 5-(4-((4-(2-((4-(3,8-diazabicyclo[3.2.1]octan-3-yl)-7-(8-ethynylnaphthalen-1-yl)-8-fluoropyrido[4,3-d]pyrimidin-2-yl)oxy)ethyl)piperazin-1-yl)methyl)piperidin-1-yl)-2-(2,6-dioxopiperidin-3-yl)isoindoline-1,3-dione hydrochloride], for which, in assay [1], the GI50 is over 1 µM. Moreover, the IC50 at KRAS(G12D)/SOS1 was 0.1 to 1 µM; in assay [2], over 1 µM.

On to `C#Cc1cccc2cccc(-c3ncc4c(N5CC6CCC(C5)N6)nc(OC[C@@H]5CC[C@H](CN6CCN(Cc7ccc8c(c7)C(=O)N(C7CCC(=O)NC7=O)C8=O)CC6)N5C)nc4c3F)c12` (stereo partly drawn) [Compound 15, 5-((4-(((2R,5S)-5-(((4-(3,8-diazabicyclo[3.2.1]octan-3-yl)-7-(8-ethynylnaphthalen-1-yl)-8-fluoropyrido[4,3-d]pyrimidin-2-yl)oxy)methyl)-1-methylpyrrolidin-2-yl)methyl)piperazin-1-yl)methyl)-2-(2,6-dioxopiperidin-3-yl)isoindoline-1,3-dione formate], for which the GI50 in assay [1] was over 1 µM. For the same compound, the IC50 against KRAS(G12D)/SOS1 is under 0.1 µM; in assay [2] it was over 1 µM.

In the case of `CN1C[C@@H](N2CCC(C(=O)NCCOCCOc3ccc4c(c3)C(=O)N(C3CCC(=O)NC3=O)C4=O)CC2)C[C@H]1COc1nc(N2CC3CCC(C2)N3)c2cnc(-c3cccc4cccc(Cl)c34)c(F)c2n1` (stereo partly drawn) [Compound 11, 1-((3S,5S)-5-(((4-(3,8-diazabicyclo[3.2.1]octan-3-yl)-7-(8-chloronaphthalen-1-yl)-8-fluoropyrido[4,3-d]pyrimidin-2-yl)oxy)methyl)-1-methylpyrrolidin-3-yl)-N-(2-(2-((2-(2,6-dioxopiperidin-3-yl)-1,3-dioxoisoindolin-5-yl)oxy)ethoxy)ethyl)piperidine-4-carboxamide formate], the GI50 in assay [1] is over 1 µM. Further, the 50% inhibitory concentration (IC50) was 0.1 to 1 µM on KRAS(G12D)/SOS1, over 1 µM in assay [2] and over 1 µM in assay [3].

Regarding `C#Cc1cccc2cccc(-c3ncc4c(N5CC6CCC(C5)N6)nc(OCC5(CN6CCN(Cc7ccc8c(c7)C(=O)N(C7CCC(=O)NC7=O)C8=O)CC6)CC5)nc4c3F)c12` (stereo not drawn) [Compound 28, 5-((4-((1-(((4-(3,8-diazabicyclo[3.2.1]octan-3-yl)-7-(8-ethynylnaphthalen-1-yl)-8-fluoropyrido[4,3-d]pyrimidin-2-yl)oxy)methyl)cyclopropyl)methyl)piperazin-1-yl)methyl)-2-(2,6-dioxopiperidin-3-yl)isoindoline-1,3-dione formate], the GI50 in assay [1] was over 1 µM. Also, the IC50 was under 0.1 µM at KRAS(G12D)/SOS1, over 1 µM in assay [2] and over 1 µM in assay [3].

Take `CN1C[C@@H](N2CCC(C(=O)N3CCN(c4ccc5c(c4)C(=O)N(C4CCC(=O)NC4=O)C5=O)CC3)CC2)C[C@H]1COc1nc(N2CC3CCC(C2)N3)c2cnc(-c3cccc4ccccc34)c(F)c2n1` (stereo partly drawn) [Compound 19, 5-(4-(1-((3S,5S)-5-(((4-(3,8-diazabicyclo[3.2.1]octan-3-yl)-8-fluoro-7-(naphthalen-1-yl)pyrido[4,3-d]pyrimidin-2-yl)oxy)methyl)-1-methylpyrrolidin-3-yl)piperidine-4-carbonyl)piperazin-1-yl)-2-(2,6-dioxopiperidin-3-yl)isoindoline-1,3-dione formate]: in assay [1], the GI50 was over 1 µM. For the same compound, the IC50 against KRAS(G12D)/SOS1 was 0.1 to 1 µM; in assay [2] it was over 1 µM; in assay [3], over 1 µM.

For `C#Cc1cccc2cccc(-c3ncc4c(N5CC6CCC(C5)N6)nc(OC[C@@H]5C[C@H](N6CCN(CC7CCN(c8ccc9c(c8)C(=O)N(C8CCC(=O)NC8=O)C9=O)CC7)CC6)CN5C)nc4c3F)c12` (stereo partly drawn) [Compound 5, 5-(4-((4-((3S,5S)-5-(((4-(3,8-diazabicyclo[3.2.1]octan-3-yl)-7-(8-ethynylnaphthalen-1-yl)-8-fluoropyrido[4,3-d]pyrimidin-2-yl)oxy)methyl)-1-methylpyrrolidin-3-yl)piperazin-1-yl)methyl)piperidin-1-yl)-2-(2,6-dioxopiperidin-3-yl)isoindoline-1,3-dione hydrochloride], in assay [1], the GI50 lay within 0.1 to 1 µM. Besides, the IC50 at KRAS(G12D)/SOS1 is under 0.1 µM; in assay [2], over 1 µM; in assay [3], over 1 µM.

For the compound `C#Cc1cccc2cccc(-c3ncc4c(N5CC6CCC(C5)N6)nc(OC[C@@H]5C[C@H](N6CCN(Cc7ccc8c(c7)C(=O)N(C7CCC(=O)NC7=O)C8=O)CC6)CN5C)nc4c3F)c12` (stereo partly drawn) [Compound 7, 5-((4-((3S,5S)-5-(((4-(3,8-diazabicyclo[3.2.1]octan-3-yl)-7-(8-ethynylnaphthalen-1-yl)-8-fluoropyrido[4,3-d]pyrimidin-2-yl)oxy)methyl)-1-methylpyrrolidin-3-yl)piperazin-1-yl)methyl)-2-(2,6-dioxopiperidin-3-yl)isoindoline-1,3-dione formate], in assay [1], the GI50 is over 1 µM. Further, the IC50 at KRAS(G12D)/SOS1 is under 0.1 µM; in assay [2], over 1 µM; in assay [3] it was over 1 µM.

Take `C#Cc1cccc2cccc(-c3ncc4c(N5CC6CCC(C5)N6)nc(OCC5(CN6CCN(C(=O)C7CCN(c8ccc9c(c8)C(=O)N(C8CCC(=O)NC8=O)C9=O)CC7)CC6)CC5)nc4c3F)c12` (stereo not drawn) [Compound 30, 5-(4-(4-((1-(((4-(3,8-diazabicyclo[3.2.1]octan-3-yl)-7-(8-ethynylnaphthalen-1-yl)-8-fluoropyrido[4,3-d]pyrimidin-2-yl)oxy)methyl)cyclopropyl)methyl)piperazine-1-carbonyl)piperidin-1-yl)-2-(2,6-dioxopiperidin-3-yl)isoindoline-1,3-dione formate]: the GI50 in assay [1] is over 1 µM. Also, the IC50 at KRAS(G12D)/SOS1 was under 0.1 µM; in assay [2] it was over 1 µM; in assay [3] it was over 1 µM.

On to `C#Cc1cccc2cccc(-c3ncc4c(N5CC6CCC(C5)N6)nc(OCCC5CCN(CC6CCN(c7cccc8c7C(=O)N(C7CCC(=O)NC7=O)C8=O)CC6)CC5)nc4c3F)c12` (stereo not drawn) [Compound 3, 4-(4-((4-(2-((4-(3,8-diazabicyclo[3.2.1]octan-3-yl)-7-(8-ethynylnaphthalen-1-yl)-8-fluoropyrido[4,3-d]pyrimidin-2-yl)oxy)ethyl)piperidin-1-yl)methyl)piperidin-1-yl)-2-(2,6-dioxopiperidin-3-yl)isoindoline-1,3-dione hydrochloride], for which the GI50 in assay [1] lay within 0.1 to 1 µM. Moreover, the results for the IC50 (against KRAS(G12D)/SOS1; in assay [2]) were under 0.1 µM and over 1 µM, respectively.

On to `C#Cc1cccc2cccc(-c3ncc4c(N5CC6CCC(C5)N6)nc(OC[C@@H]5CC[C@H](CN6CCN(C(=O)C7CCN(c8ccc9c(c8)C(=O)N(C8CCC(=O)NC8=O)C9=O)CC7)CC6)N5C)nc4c3F)c12` (stereo partly drawn) [Compound 16, 5-(4-(4-(((2R,5S)-5-(((4-(3,8-diazabicyclo[3.2.1]octan-3-yl)-7-(8-ethynylnaphthalen-1-yl)-8-fluoropyrido[4,3-d]pyrimidin-2-yl)oxy)methyl)-1-methylpyrrolidin-2-yl)methyl)piperazine-1-carbonyl)piperidin-1-yl)-2-(2,6-dioxopiperidin-3-yl)isoindoline-1,3-dione hydrochloride], for which the GI50 in assay [1] was over 1 µM. Besides, the IC50 against KRAS(G12D)/SOS1 is under 0.1 µM; in assay [2] it was over 1 µM.
